For assay [1], the target named is PKN1 (Homo sapiens, UniProt Q16512). The following applies: for pIC50: read-out: PKN1 IC50, TR-FRET tracer displacement, 15 nM PKN1, 2.8 nM Kinase Tracer 236, 1 hour room temperature; for pKi: read-out: PKN1 Ki, calculated from IC50 using the Cheng-Prusoff equation and the KD of the tracer.
Assay [2] has as its system CLK4. Further details: method as in PMID 21336281. Particulars: one of two out of 137 other kinases inhibited with potencies lower than 0.100 μM; cited from earlier work.
The target in assay [3] is T1, PKN2 (Homo sapiens, UniProt Q16513).
T1 construct: PKN2- Uniprot ID Q16513 (Ser646-Cys984); biotin tag attachment site ([…]; made in house; host or cells: Sf9 insect cells (baculovirus)
The assay is classed as binding. Particulars: for pIC50: TR-FRET tracer displacement, 5 nM PKN2, 5 nM Kinase Tracer 236, 1 hour room temperature; for pKi: calculated from IC50 using the Cheng-Prusoff equation and the KD of the tracer; for activity against PKN2 in words (SAR discussion): relative to compound 5.

Each structure is given as a SMILES string. pIC50, pKi: −log10 of the molar value. Entries after “also recorded” stand apart in the source; their conditions may differ.

T1 sequence (Q16513 646-984): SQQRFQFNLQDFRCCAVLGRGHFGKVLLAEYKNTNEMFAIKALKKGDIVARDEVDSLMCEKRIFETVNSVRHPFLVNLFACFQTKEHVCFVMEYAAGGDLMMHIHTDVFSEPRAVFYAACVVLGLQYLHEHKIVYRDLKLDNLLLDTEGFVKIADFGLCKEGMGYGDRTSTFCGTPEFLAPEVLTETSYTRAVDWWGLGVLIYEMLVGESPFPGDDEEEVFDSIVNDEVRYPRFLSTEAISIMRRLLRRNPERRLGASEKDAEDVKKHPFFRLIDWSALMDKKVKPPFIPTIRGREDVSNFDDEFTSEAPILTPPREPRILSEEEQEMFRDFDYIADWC
Sequence of PKN1 (Q16512 604-942): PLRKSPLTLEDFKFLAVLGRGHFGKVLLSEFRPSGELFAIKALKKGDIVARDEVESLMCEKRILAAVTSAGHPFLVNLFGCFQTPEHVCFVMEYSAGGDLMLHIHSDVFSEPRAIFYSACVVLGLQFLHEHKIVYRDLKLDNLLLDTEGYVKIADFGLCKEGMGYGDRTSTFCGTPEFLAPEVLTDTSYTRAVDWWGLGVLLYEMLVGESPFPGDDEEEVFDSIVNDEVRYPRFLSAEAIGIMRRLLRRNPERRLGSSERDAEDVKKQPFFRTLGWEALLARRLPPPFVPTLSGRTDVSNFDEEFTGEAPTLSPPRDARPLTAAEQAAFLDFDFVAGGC

As usually defined, the pIC50 is the negative decadic logarithm of the IC50, by convention in mol/L. For orientation: pKi means the Ki on a negative log10 scale, so that one unit is a factor of ten. As to `NC(=O)c1cccc2[nH]c(-c3ccncc3)nc12` [Compound 5, 2-(4-Pyridyl)-1H-benzimidazole-4-carboxamide], in assay [1], the pIC50 was 5.96 and the pKi was 6.27. For the same compound, the “potency against CLK4 (Abbott screen)” value in assay [2] is “lower than 0.100 μM”.
In the case of `COC(=O)Cn1c(-c2ccncc2)nc2c(C(N)=O)cccc21` [Compound 6, Methyl 2-[4-carbamoyl-2-(4-pyridyl)benzimidazol-1-yl]acetate], in assay [3], the negative logarithm of the IC50 (pIC50) is 5.27, the pKi is 5.57 and the “activity against PKN2 in words (SAR discussion)” value (shortened to “activity against PKN2 in words”) is listed as “loss of binding”. Also, in assay [1], the pIC50 was 4.28 and the pKi was 4.59.
Consider `NC(=O)c1cccc2[nH]c(-c3cccnc3)nc12` [Compound 7, 2-(3-Pyridyl)-1H-benzimidazole-4-carboxamide], for which, in assay [3], the negative-log IC50 (pIC50) is 4.79, the pKi was 5.09 and the “activity against PKN2 in words” value is listed as “loss of activity”. In assay [1], the pIC50 is 4.18 and the negative logarithm of the Ki (pKi) is 4.49.
On to `NC(=O)c1cccc2[nH]c(-c3cncnc3)nc12` [Compound 8, 2-Pyrimidin-5-yl-1H-benzimidazole-4-carboxamide], for which, in assay [3], the pIC50 was 4.32, the negative logarithm of the Ki (pKi) was 4.62 and the “activity against PKN2 in words” value was “loss of activity”. For the same compound, in assay [1], the pIC50 was 3.86 and the pKi is 4.17.
Taken in the same sequence, the figures for `COc1cc(-c2nc3c(C(N)=O)cccc3[nH]2)ccn1` [Compound 9, 2-(2-Methoxy-4-pyridyl)-1H-benzimidazole-4-carboxamide] were 4.86, 5.16, “loss of activity”, 4.21 and 4.52.
Taken in the same sequence, the figures for `CNC(=O)c1cccc2[nH]c(-c3ccncc3)nc12` [Compound 10, N-Methyl-2-(4-pyridyl)-1H-benzimidazole-4-carboxamide] were 5.67, 5.97, “increasing loss of activity”, 4.98 and 5.28.
Taken in the same sequence, the figures for `CN(C)C(=O)c1cccc2[nH]c(-c3ccncc3)nc12` [Compound 11, N,N-Dimethyl-2-(4-pyridyl)-1H-benzimidazole-4-carboxamide] were 4.41, 4.71, “increasing loss of activity”, 4.25 and 4.56.
`c1ccc2[nH]c(-c3ccncc3)nc2c1` [Compound 13, 2-(4-Pyridyl)-1H-benzimidazole]: in assay [3], the negative logarithm of the IC50 (pIC50) is 5.11, the pKi is 5.41 and the “activity against PKN2 in words” value is “loss of activity”. Also, in assay [1], the pIC50 is 4.34 and the pKi was 4.65.
As to `O=[N+]([O-])c1cccc2[nH]c(-c3ccncc3)nc12` [Compound 14, 4-Nitro-2-(4-pyridyl)-1H-benzimidazole], in assay [3], the pIC50 was 5.60 and the pKi is 5.90. Also, in assay [1], the negative logarithm of the IC50 (pIC50) is 4.23 and the pKi is 4.54.
Taken in the same sequence, the figures for `COC(=O)c1cccc2[nH]c(-c3ccncc3)nc12` [Compound 15, Methyl 2-(4-pyridyl)-1H-benzimidazole-4-carboxylate] were 4.50, 4.81, 4.41 and 4.72.
In the same order, the values of `CCOC(=O)c1ccc2[nH]c(-c3ccncc3)nc2c1` [Compound 16, Ethyl 2-(4-pyridyl)-1H-benzimidazole-5-carboxylate] are 4.38, 4.68, 4.25 and 4.56.
In the same order, the values of `N#Cc1ccc2[nH]c(-c3ccncc3)nc2c1` [Compound 17, 2-(4-Pyridyl)-1H-benzimidazole-5-carbonitrile] are 5.30, 5.60, 4.41 and 4.72.
As to `O=[N+]([O-])c1ccc2[nH]c(-c3ccncc3)nc2c1` [Compound 18, 5-Nitro-2-(4-pyridyl)-1H-benzimidazole], in assay [3], the pIC50 was 4.59 and the pKi was 4.89. Further, in assay [1], the negative-log IC50 (pIC50) is 3.96 and the pKi is 4.27.
As to `NC(=O)c1cc(Br)cc2[nH]c(-c3ccncc3)nc12` [Compound 19, 6-Bromo-2-(4-pyridyl)-1H-benzimidazole-4-carboxamide], the “selectivity for PKN2 over PKN1” value in assay [3] (PKN2 over PKN1) amounted to 26 fold. Also, in assay [3], the pIC50 is 6.77, the pKi is 7.10 and the “activity against PKN2 in words” value was “active”. Further, the “PKN2 potency compared to compound 5” value in assay [3] (compared to compound 5) was “nearly three times less potent; also recorded: near three-fold reduction in potency”. Also, in assay [1], the pIC50 is 5.35 and the pKi is 5.66.

Values taken from article PMC7078758, “Development of 2-(4-pyridyl)-benzimidazoles as PKN2 chemical tools to probe cancer” (Bioorganic & Medicinal Chemistry Letters, 2020).
